Data from US9738634B2, “Heterocyclic amide compound and herbicide” (SYNGENTA PARTICIPATIONS AG, priority 2013, dated 2017).

Columns and labels:
Type in all cases: in vivo
wild oat = assay: Test Example 3: weedkilling efficacy through soil treatment; G: wild oat; conditions: soil treatment, treatment dosage 320 g/ha
How it was run: (§1)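 Crop and weed responses were judged three weeks after a uniform surface spray of the water-diluted emulsion at the given g/ha rate. Seeds sat beneath about 1.5 cm of sterilized diluvial soil, and boxes stood in a greenhouse at 25 to 30° C.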

Italian ryegrass = assay: Test Example 3: weedkilling efficacy through soil treatment; I: Italian ryegrass; conditions: soil treatment, treatment dosage 320 g/ha
How it was run: as §1

barnyard grass [1] = assay: Test Example 2: weedkilling efficacy, growth period weed treatment in the submerged state; A: barnyard grass; conditions: treatment dosage 320 g/ha
How it was run: (§2)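 Weeds treated at the 1-2 leaf stage by application of diluted emulsion onto floodwater (4 cm depth, alluvial soil) at specified g/ha. Grown in greenhouse at 25 to 30° C; herbicidal effect rated three weeks after treatment.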

corn = assay: Test Example 3: soil treatment, effect on crop; c: corn; conditions: soil treatment, treatment dosage 320 g/ha
How it was run: as §1

wheat = assay: Test Example 3: soil treatment, effect on crop; e: wheat; conditions: soil treatment, treatment dosage 320 g/ha
How it was run: as §1

green foxtail = assay: Test Example 3: weedkilling efficacy through soil treatment; E: green foxtail; conditions: soil treatment, treatment dosage 320 g/ha
How it was run: as §1

soybean = assay: Test Example 3: soil treatment, effect on crop; d: soybean; conditions: soil treatment, treatment dosage 320 g/ha
How it was run: as §1

fig-leafed goosefoot = assay: Test Example 3: weedkilling efficacy through soil treatment; M: fig-leafed goosefoot; conditions: soil treatment, treatment dosage 320 g/ha
How it was run: as §1

common wind-grass = assay: Test Example 3: weedkilling efficacy through soil treatment; J: common wind-grass; conditions: soil treatment, treatment dosage 320 g/ha
How it was run: as §1

oval-leafed pondweed [2] = assay: Test Example 2: weedkilling efficacy, growth period weed treatment in the submerged state; C: oval-leafed pondweed; conditions: treatment dosage 320 g/ha
How it was run: as §2

barnyard grass [3] = assay: Test Example 1: weedkilling efficacy, preemergent weed treatment in the submerged state; A: barnyard grass; conditions: treatment dosage 320 g/ha
How it was run: (§3)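 Pots of alluvial soil were flooded to a 4 cm depth. Mixed weed seeds were sown and 2.5 leaf-stage rice seedlings transplanted. On sowing day, water-diluted emulsion was applied to the water surface (dose in g/ha). After 3 weeks at 25–30 °C, effects were rated.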

birds-eye speedwell = assay: Test Example 3: weedkilling efficacy through soil treatment; p: birds-eye speedwell; conditions: soil treatment, treatment dosage 320 g/ha
How it was run: as §1

bulrush [4] = assay: Test Example 2: weedkilling efficacy, growth period weed treatment in the submerged state; B: bulrush; conditions: treatment dosage 320 g/ha
How it was run: as §2

Indian mallow = assay: Test Example 3: weedkilling efficacy through soil treatment; K: Indian mallow; conditions: soil treatment, treatment dosage 320 g/ha
How it was run: as §1

oval-leafed pondweed [5] = assay: Test Example 1: weedkilling efficacy, preemergent weed treatment in the submerged state; C: oval-leafed pondweed; conditions: treatment dosage 320 g/ha
How it was run: as §3

transplanted rice = assay: Test Example 1: preemergent weed treatment in the submerged state, effect on crop; a: transplanted rice; conditions: treatment dosage 320 g/ha
How it was run: as §3

catchweed = assay: Test Example 3: weedkilling efficacy through soil treatment; O: catchweed; conditions: soil treatment, treatment dosage 320 g/ha
How it was run: as §1

beet = assay: Test Example 3: soil treatment, effect on crop; f: beet; conditions: soil treatment, treatment dosage 320 g/ha
How it was run: as §1

black-grass = assay: Test Example 3: weedkilling efficacy through soil treatment; H: black-grass; conditions: soil treatment, treatment dosage 320 g/ha
How it was run: as §1

barnyard grass [6] = assay: Test Example 3: weedkilling efficacy through soil treatment; F: barnyard grass; conditions: soil treatment, treatment dosage 320 g/ha
How it was run: as §1

directly sown rice = assay: Test Example 3: soil treatment, effect on crop; b: directly sown rice; conditions: soil treatment, treatment dosage 320 g/ha
How it was run: as §1

redroot pigweed = assay: Test Example 3: weedkilling efficacy through soil treatment; L: redroot pigweed; conditions: soil treatment, treatment dosage 320 g/ha
How it was run: as §1

rapeseed = assay: Test Example 3: soil treatment, effect on crop; g: rapeseed; conditions: soil treatment, treatment dosage 320 g/ha
How it was run: as §1

bulrush [7] = assay: Test Example 1: weedkilling efficacy, preemergent weed treatment in the submerged state; B: bulrush; conditions: treatment dosage 320 g/ha
How it was run: as §3

crabgrass = assay: Test Example 3: weedkilling efficacy through soil treatment; D: crabgrass; conditions: soil treatment, treatment dosage 320 g/ha
How it was run: as §1

chickweed = assay: Test Example 3: weedkilling efficacy through soil treatment; N: chickweed; conditions: soil treatment, treatment dosage 320 g/ha
How it was run: as §1

SMILES	G: wild oat, weedkilling efficacy grade (wild oat)	I: Italian ryegrass, weedkilling efficacy grade (Italian ryegrass)	A (barnyard grass) weedkilling efficacy grade (barnyard grass [1])	c: corn, effect on crop grade (corn)	e: wheat, effect on crop grade (wheat)	E: green foxtail, weedkilling efficacy grade (green foxtail)	d: soybean, effect on crop grade (soybean)	M: fig-leafed goosefoot, weedkilling efficacy grade (fig-leafed goosefoot)	J: common wind-grass, weedkilling efficacy grade (common wind-grass)	C (oval-leafed pondweed) weedkilling efficacy grade (oval-leafed pondweed [2])	A: barnyard grass, weed kill grade (barnyard grass [3])	P: birds-eye speedwell, weedkilling efficacy grade (birds-eye speedwell)	B (bulrush) weedkilling efficacy grade (bulrush [4])	K: Indian mallow, weedkilling efficacy grade (Indian mallow)	C: oval-leafed pondweed, weed kill grade (oval-leafed pondweed [5])	a: transplanted rice, effect on crop grade (transplanted rice)	O: catchweed, weedkilling efficacy grade (catchweed)	f: beet, effect on crop grade (beet)	H: black-grass, weedkilling efficacy grade (black-grass)	F: barnyard grass, weedkilling efficacy grade (barnyard grass [6])	further results
CC(C)(C(=O)Nc1cc(Oc2ccccc2)cc(Cl)n1)N1COCN(c2ccccc2)C1=O [A-2-36]	0 (weed kill ratio 5% or less (practically no effect))	5 (weed kill ratio 90% or more, (practically complete withering))	5 (weed kill ratio 90% or more, (practically complete withering))	0 (weed kill ratio 5% or less (practically no effect))	0 (weed kill ratio 5% or less (practically no effect))	5 (weed kill ratio 90% or more, (practically complete withering))	0 (weed kill ratio 5% or less (practically no effect))	3 (weed kill ratio 40% or more, less than 70%)	5 (weed kill ratio 90% or more, (practically complete withering))	5 (weed kill ratio 90% or more, (practically complete withering))	5 (weed kill ratio 90% or more, (practically complete withering))	4 (weed kill ratio 70% or more, less than 90%)	3 (weed kill ratio 40% or more, less than 70%)	0 (weed kill ratio 5% or less (practically no effect))	5 (weed kill ratio 90% or more, (practically complete withering))	2 (weed kill ratio 20% or more, less than 40%)	0 (weed kill ratio 5% or less (practically no effect))	2 (weed kill ratio 20% or more, less than 40%)	5 (weed kill ratio 90% or more, (practically complete withering))	4 (weed kill ratio 70% or more, less than 90%)	b: directly sown rice, effect on crop grade (directly sown rice): 0 (weed kill ratio 5% or less (practically no effect)); L: redroot pigweed, weedkilling efficacy grade (redroot pigweed): 3 (weed kill ratio 40% or more, less than 70%); g: rapeseed, effect on crop grade (rapeseed): 1 (weed kill ratio 5% or more, less than 20%); B: bulrush, weed kill grade (bulrush [7]): 5 (weed kill ratio 90% or more, (practically complete withering)); D: crabgrass, weedkilling efficacy grade (crabgrass): 5 (weed kill ratio 90% or more, (practically complete withering)); N: chickweed, weedkilling efficacy grade (chickweed): 3 (weed kill ratio 40% or more, less than 70%)
CC(C)(C(=O)Nc1cc(C(F)F)ccn1)N1COCN(c2ccccc2)C1=O [A-2-40]	5 (weed kill ratio 90% or more, (practically complete withering))	5 (weed kill ratio 90% or more, (practically complete withering))	5 (weed kill ratio 90% or more, (practically complete withering))	2 (weed kill ratio 20% or more, less than 40%)	1 (weed kill ratio 5% or more, less than 20%)	5 (weed kill ratio 90% or more, (practically complete withering))	3 (weed kill ratio 40% or more, less than 70%)	4 (weed kill ratio 70% or more, less than 90%)	5 (weed kill ratio 90% or more, (practically complete withering))	5 (weed kill ratio 90% or more, (practically complete withering))	5 (weed kill ratio 90% or more, (practically complete withering))	5 (weed kill ratio 90% or more, (practically complete withering))	5 (weed kill ratio 90% or more, (practically complete withering))	4 (weed kill ratio 70% or more, less than 90%)	5 (weed kill ratio 90% or more, (practically complete withering))	1 (weed kill ratio 5% or more, less than 20%)	5 (weed kill ratio 90% or more, (practically complete withering))	4 (weed kill ratio 70% or more, less than 90%)	5 (weed kill ratio 90% or more, (practically complete withering))	5 (weed kill ratio 90% or more, (practically complete withering))	b: directly sown rice, effect on crop grade (directly sown rice): 5 (weed kill ratio 90% or more, (practically complete withering)); L: redroot pigweed, weedkilling efficacy grade (redroot pigweed): 4 (weed kill ratio 70% or more, less than 90%); g: rapeseed, effect on crop grade (rapeseed): 4 (weed kill ratio 70% or more, less than 90%); B: bulrush, weed kill grade (bulrush [7]): 5 (weed kill ratio 90% or more, (practically complete withering)); D: crabgrass, weedkilling efficacy grade (crabgrass): 5 (weed kill ratio 90% or more, (practically complete withering)); N: chickweed, weedkilling efficacy grade (chickweed): 4 (weed kill ratio 70% or more, less than 90%)
